From PMC7335202, “A quaternary ammonium silane antimicrobial triggers bacterial membrane and biofilm destruction” (Scientific Reports, 2020) come the findings set out here.

In this test the target is T1, Sortase A (Streptococcus mutans, UniProt Q8CM62).
T1 construct: gene srtA
T1 sequence (Q8CM62 1-246): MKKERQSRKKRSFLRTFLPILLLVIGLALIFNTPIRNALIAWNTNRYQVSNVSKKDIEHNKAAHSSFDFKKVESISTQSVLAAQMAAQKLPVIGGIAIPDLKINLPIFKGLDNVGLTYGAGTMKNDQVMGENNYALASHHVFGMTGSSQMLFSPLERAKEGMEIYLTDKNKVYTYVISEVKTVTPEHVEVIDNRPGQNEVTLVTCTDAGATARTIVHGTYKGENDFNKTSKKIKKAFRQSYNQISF
Nature of the test: fluorescent peptide (Dabcyl-QALPETGEE-Edans) cleavage assay with purified sortase A; positive control inhibitor. The format is biochemical.

In turn, `O=C(O)c1cc[c]([Hg][OH])cc1` [pHMB, ρ-hydroxymercuribenzoic acid] returned an IC50 of 24.5 ± 4.1 µM.

One may read the IC50 as the point on the concentration scale where inhibition reaches its midpoint. A lower IC50 goes with higher potency.
